Assay results as given in ChEMBL document CHEMBL1201862, “PubChem BioAssay data set” (2004).
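Five compound concentrations were applied to cells in 96-well plates for 48 hours; endpoints were derived by simple linear interpolation of the resulting dose-response curve. GI50: concentration for 50% inhibition of growth.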 The source made the active and inactive calls. Cut-off read from the data, not from the text of the source: active = GI50 up to about 1.1 µM and inactive = higher.

Columns and labels:
Experiment in all cases: growth of human tumour cells (NCI), 48 h
NCI/ADR-RES = tested on: NCI/ADR-RES
HCT-116 = tested on: HCT-116
HOP-62 = tested on: HOP-62
MCF7 = tested on: MCF7
SK-OV-3 = tested on: SK-OV-3
HL-60 = tested on: HL-60
Hs-578T = tested on: Hs-578T
CCRF-CEM = tested on: CCRF-CEM
SNB-19 = tested on: SNB-19
CAKI-1 = tested on: CAKI-1
LOX IMVI = tested on: LOX IMVI
KM12 = tested on: KM12
MDA-MB-231 = tested on: MDA-MB-231
SF-295 = tested on: SF-295
T47D = tested on: T47D
A549 = tested on: A549
SK-MEL-28 = tested on: SK-MEL-28
OVCAR-3 = tested on: OVCAR-3
HCC 2998 = tested on: HCC 2998
BT-549 = tested on: BT-549
NCI-H460 = tested on: NCI-H460
EKVX = tested on: EKVX
NCI-H23 = tested on: NCI-H23
NCI-H226 = tested on: NCI-H226
SR = tested on: SR
HCT-15 = tested on: HCT-15
UACC-62 = tested on: UACC-62
SK-MEL-2 = tested on: SK-MEL-2
UACC-257 = tested on: UACC-257
K562 = tested on: K562
IGROV-1 = tested on: IGROV-1
A498 = tested on: A498
U-251 = tested on: U-251
COLO 205 = tested on: COLO 205
RPMI-8226 = tested on: RPMI-8226
OVCAR-4 = tested on: OVCAR-4
M14 = tested on: M14
SN12C = tested on: SN12C
OVCAR-8 = tested on: OVCAR-8
HOP-92 = tested on: HOP-92
SF-539 = tested on: SF-539
HT-29 = tested on: HT-29
Malme-3M = tested on: Malme-3M
RXF 393 = tested on: RXF 393
ACHN = tested on: ACHN
MDA-MB-435 = tested on: MDA-MB-435
MOLT-4 = tested on: MOLT-4
OVCAR-5 = tested on: OVCAR-5
786-0 = tested on: 786-0
SK-MEL-5 = tested on: SK-MEL-5
SF-268 = tested on: SF-268
DU-145 = tested on: DU-145
SW-620 = tested on: SW-620
PC-3 = tested on: PC-3
NCI-H522 = tested on: NCI-H522
TK-10 = tested on: TK-10
UO-31 = tested on: UO-31
SNB-75 = tested on: SNB-75
MDA-N = tested on: MDA-N

In the case of `C=C(C)C(=O)O[C@H]1CC2(CO)O[C@@H]2CC/C(COC(C)=O)=C/C2OC(=O)C(=C)[C@@H]21` (stereo partly specified), the GI50 (NCI/ADR-RES) is reported as 45.6 µM (inactive), the GI50 (HCT-116) is reported as 18.2 µM (inactive) and the GI50 (HOP-62) is reported as > 100 µM (inactive). For the same compound, the GI50 (MCF7) was 11.4 µM (inactive), the GI50 (SK-OV-3) was > 100 µM (inactive) and the GI50 (HL-60) was 8.67 µM (inactive). The GI50 (Hs-578T) was > 92.5 µM (inactive), the GI50 (CCRF-CEM) was 15.7 µM (inactive) and the GI50 (SNB-19) was > 100 µM (inactive). The GI50 (CAKI-1) was 28.8 µM (inactive), the GI50 (LOX IMVI) was 23.9 µM (inactive) and the GI50 (KM12) was > 85.3 µM (inactive). The GI50 (MDA-MB-231) was 61.4 µM (inactive), the GI50 (SF-295) was > 100 µM (inactive) and the GI50 (T47D) was 29.5 µM (inactive). For the same compound, the GI50 (A549) was > 100 µM (inactive), the GI50 (SK-MEL-28) was 23.6 µM (inactive) and the GI50 (OVCAR-3) was 30.2 µM (inactive). The GI50 (HCC 2998) was 44.6 µM (inactive), the GI50 (BT-549) was 21.8 µM (inactive) and the GI50 (NCI-H460) was > 100 µM (inactive). The GI50 (EKVX) was > 100 µM (inactive), the GI50 (NCI-H23) was 42.2 µM (inactive) and the GI50 (NCI-H226) was > 46.1 µM (inactive). For the same compound, the GI50 (SR) was 16.9 µM (inactive), the GI50 (HCT-15) was 26.2 µM and the GI50 (UACC-62) was 39.5 µM (inactive). For the same compound, the GI50 (SK-MEL-2) was 52.4 µM (inactive), the GI50 (UACC-257) was 20 µM (inactive) and the GI50 (K562) was 23.9 µM (inactive). The GI50 (IGROV-1) was > 64.6 µM (inactive), the GI50 (A498) was > 100 µM (inactive) and the GI50 (U-251) was > 100 µM (inactive). The GI50 (COLO 205) was 18.2 µM (inactive), the GI50 (RPMI-8226) was 7.16 µM (inactive) and the GI50 (OVCAR-4) was 39.6 µM (inactive). The GI50 (M14) was 21 µM (inactive), the GI50 (SN12C) was 92 µM (inactive) and the GI50 (OVCAR-8) was 22 µM (inactive). The GI50 (HOP-92) was 26.4 µM (inactive), the GI50 (SF-539) was 74.8 µM (inactive) and the GI50 (HT-29) was 34.8 µM (inactive). The GI50 (Malme-3M) was 23.4 µM (inactive), the GI50 (RXF 393) was 12.1 µM (inactive) and the GI50 (ACHN) was 26.1 µM (inactive). The GI50 (MDA-MB-435) was 31.8 µM (inactive), the GI50 (MOLT-4) was 7.93 µM (inactive) and the GI50 (OVCAR-5) was > 100 µM (inactive). The GI50 (786-0) was 20.2 µM (inactive), the GI50 (SK-MEL-5) was 28.3 µM (inactive) and the GI50 (SF-268) was > 100 µM (inactive). The GI50 (DU-145) was > 96.6 µM (inactive), the GI50 (SW-620) was 19.6 µM (inactive) and the GI50 (PC-3) was 56.1 µM (inactive). For the same compound, the GI50 (NCI-H522) was 16.4 µM (inactive), the GI50 (TK-10) was 25.4 µM (inactive) and the GI50 (UO-31) was 22.5 µM (inactive). The GI50 (SNB-75) was 59.7 µM (inactive).
For `NC(CCP(=O)(O)O)C(=O)O` (stereo unspecified), the GI50 (NCI/ADR-RES) was > 100 µM (inactive), the GI50 (HCT-116) was > 100 µM (inactive) and the GI50 (HOP-62) was > 100 µM (inactive). For the same compound, the GI50 (HL-60) was > 100 µM (inactive), the GI50 (Hs-578T) was > 100 µM (inactive) and the GI50 (CCRF-CEM) was > 100 µM (inactive). The GI50 (SNB-19) was > 100 µM (inactive), the GI50 (CAKI-1) was > 100 µM (inactive) and the GI50 (LOX IMVI) was > 100 µM (inactive). For the same compound, the GI50 (MDA-N) was > 100 µM (inactive), the GI50 (KM12) was > 100 µM (inactive) and the GI50 (MDA-MB-231) was > 100 µM (inactive). For the same compound, the GI50 (SF-295) was > 100 µM (inactive), the GI50 (T47D) was > 100 µM (inactive) and the GI50 (A549) was > 100 µM (inactive). For the same compound, the GI50 (SK-MEL-28) was > 100 µM (inactive), the GI50 (OVCAR-3) was > 100 µM (inactive) and the GI50 (BT-549) was > 100 µM (inactive). For the same compound, the GI50 (NCI-H460) was > 100 µM (inactive), the GI50 (EKVX) was > 100 µM (inactive) and the GI50 (NCI-H23) was > 100 µM (inactive). For the same compound, the GI50 (NCI-H226) was > 100 µM (inactive), the GI50 (SR) was > 100 µM (inactive) and the GI50 (HCT-15) was > 100 µM. The GI50 (UACC-62) was > 100 µM (inactive), the GI50 (SK-MEL-2) was > 100 µM (inactive) and the GI50 (UACC-257) was > 100 µM (inactive). The GI50 (K562) was > 100 µM (inactive), the GI50 (IGROV-1) was > 100 µM (inactive) and the GI50 (A498) was > 100 µM (inactive). For the same compound, the GI50 (U-251) was > 100 µM (inactive), the GI50 (RPMI-8226) was > 100 µM (inactive) and the GI50 (OVCAR-4) was > 100 µM (inactive). For the same compound, the GI50 (M14) was > 100 µM (inactive), the GI50 (SN12C) was > 100 µM (inactive) and the GI50 (OVCAR-8) was > 100 µM (inactive). For the same compound, the GI50 (HOP-92) was > 100 µM (inactive), the GI50 (HT-29) was > 100 µM (inactive) and the GI50 (Malme-3M) was > 100 µM (inactive). For the same compound, the GI50 (RXF 393) was > 100 µM (inactive), the GI50 (ACHN) was > 100 µM (inactive) and the GI50 (MDA-MB-435) was > 100 µM (inactive). The GI50 (MOLT-4) was > 100 µM (inactive), the GI50 (OVCAR-5) was > 100 µM (inactive) and the GI50 (786-0) was > 100 µM (inactive). The GI50 (SK-MEL-5) was > 100 µM (inactive), the GI50 (SF-268) was > 100 µM (inactive) and the GI50 (SW-620) was > 100 µM (inactive). For the same compound, the GI50 (PC-3) was > 100 µM (inactive), the GI50 (NCI-H522) was > 100 µM (inactive) and the GI50 (TK-10) was > 100 µM (inactive). For the same compound, the GI50 (UO-31) was > 100 µM (inactive).
`CC1(C)C2CCC1(C)C(N/C(Sc1ccccc1)=C(/C(Cl)=C(Cl)Cl)[N+](=O)[O-])C2` (stereo unspecified) was tested, and the GI50 (NCI/ADR-RES) was 14 µM (inactive), the GI50 (HCT-116) was 15.5 µM (inactive) and the GI50 (HOP-62) was 18.5 µM (inactive). For the same compound, the GI50 (MCF7) was 11.2 µM (inactive), the GI50 (SK-OV-3) was 13.8 µM (inactive) and the GI50 (SNB-19) was 18.1 µM (inactive). For the same compound, the GI50 (CAKI-1) was 15.2 µM (inactive), the GI50 (MDA-N) was 10.6 µM (inactive) and the GI50 (KM12) was 4.8 µM (inactive). The GI50 (MDA-MB-231) was 10.4 µM (inactive), the GI50 (SF-295) was 13.1 µM (inactive) and the GI50 (T47D) was 13.5 µM (inactive). For the same compound, the GI50 (A549) was 14.5 µM (inactive), the GI50 (SK-MEL-28) was 12.4 µM (inactive) and the GI50 (OVCAR-3) was 4.92 µM (inactive). The GI50 (HCC 2998) was 15.2 µM (inactive), the GI50 (BT-549) was 12.4 µM (inactive) and the GI50 (NCI-H460) was 15.3 µM (inactive). The GI50 (EKVX) was 13.4 µM (inactive), the GI50 (NCI-H23) was 12.3 µM (inactive) and the GI50 (NCI-H226) was 16.8 µM (inactive). For the same compound, the GI50 (HCT-15) was 10.4 µM, the GI50 (UACC-62) was 9.14 µM (inactive) and the GI50 (SK-MEL-2) was 12.5 µM (inactive). The GI50 (UACC-257) was 14.3 µM (inactive), the GI50 (K562) was 6.35 µM (inactive) and the GI50 (A498) was 15 µM (inactive). For the same compound, the GI50 (U-251) was 11.4 µM (inactive), the GI50 (OVCAR-4) was 13.4 µM (inactive) and the GI50 (M14) was 13.2 µM (inactive). The GI50 (SN12C) was 13.9 µM (inactive), the GI50 (OVCAR-8) was 13.8 µM (inactive) and the GI50 (SF-539) was 13.5 µM (inactive). The GI50 (HT-29) was 10.4 µM (inactive), the GI50 (Malme-3M) was 15.1 µM (inactive) and the GI50 (ACHN) was 13.5 µM (inactive). For the same compound, the GI50 (MDA-MB-435) was 10.4 µM (inactive), the GI50 (MOLT-4) was 3.22 µM (inactive) and the GI50 (OVCAR-5) was 13.9 µM (inactive). For the same compound, the GI50 (786-0) was 14 µM (inactive), the GI50 (SF-268) was 12 µM (inactive) and the GI50 (DU-145) was 17.7 µM (inactive). The GI50 (SW-620) was 11.7 µM (inactive), the GI50 (PC-3) was 9.06 µM (inactive) and the GI50 (UO-31) was 13.2 µM (inactive). The GI50 (SNB-75) was 15.6 µM (inactive).
